Measurements taken from patent US7531517B2, “Inhibitors of cancer cell, T-cell and keratinocyte proliferation” (4SC AG, priority 2005, dated 2009).

Target: T1, human Proteasome (20S proteasome, chymotryptic activity) (Homo sapiens, UniProt P28074)
T1 construct: purchased Immatics, Tübingen
Assay: chymotryptic activity of the 20S proteasome (Suc-LLVT-AMC substrate, fluorescence)
Format: biochemical
Settings: for human Proteasome IC50: given in words only
Experimental: The chymotryptic activity of the 20S proteasome (Immatics, Tüibingen) was determined using a Tecan Ultra plate reader and Suc-LLVT-AMC as substrate (Bachem). In the wells of a black 96 well polypropylene plate, 2 μl of the respective inhibitor dissolved in DMSO were mixed with 50 μl substrate solution (25 mM HEPES pH 7.5 at 20° C., 0.5 mM EDTA and Suc-LLVT-AMC (in the appropriate concentration) and the reaction was initiated by adding 150 μl proteasome solution (1.3 μg/ml 20S proteasome in 25 mM HEPES pH 7.5 at 20° C., 0.5 mM EDTA, 0.033% (w/v) SDS). Substrate hydrolysis was followed by fluorescence spectroscopy (excitation wavelength: 360 nm; emission wavelength: 465 nm) for 20 min at 30° C. and initial velocities were calculated and expressed as change in relative fluorescence units (RFU) per second.

SMILES | IC50 (unit nm [sic]) [nM] | human Proteasome IC50 | also measured
O=C1CN(/N=C/C(Cc2ccccc2)NC(=O)C(Cc2c[nH]c3ccccc23)NC(=O)C(Cc2c[nH]c3ccccc23)NC(=O)OCc2ccccc2)C(=O)N1 (stereo not drawn) [Compound 1] | 157 |  | 
O=C1CN(/N=C/C(Cc2ccccc2)NC(=O)C(Cc2c[nH]c3ccccc23)NC(=O)C(Cc2c[nH]c3ccccc23)NC(=O)CCCCC2SCC3NC(=O)NC32)C(=O)N1 (stereo not drawn) [Compound 2] |  |  | IC50 (unit cell prints nM): 76 nM
O=C1CN(/N=C/C(Cc2ccccc2)NC(=O)C(Cc2c[nH]c3ccccc23)NC(=O)C(Cc2c[nH]c3ccccc23)NC(=O)Cc2cccc(Oc3ccccc3)c2)C(=O)N1 (stereo not drawn) [Compound 3] | 224 |  | 
O=C1CN(/N=C/C(Cc2ccccc2)NC(=O)C(Cc2c[nH]c3ccccc23)NC(=O)C(Cc2c[nH]c3ccccc23)NC(=O)OCc2cccnc2)C(=O)N1 (stereo not drawn) [Compound 4] | 61 |  | 
O=C1CN(N=CC(Cc2ccccc2)NC(=O)C(Cc2ccc3ccccc3c2)NC(=O)C(Cc2ccc(Br)cc2)NC(=O)OCc2ccccc2)C(=O)N1 (stereo not drawn) [Compound 5] |  | nanomolar | 
O=C1CN(N=CC(Cc2ccccc2)NC(=O)C(Cc2ccc3ccccc3c2)NC(=O)C(Cc2ccc(Br)cc2)NC(=O)OCc2cccnc2)C(=O)N1 (stereo not drawn) [Compound 6] |  | nanomolar | 
CC(C)(C)OC(=O)NC(Cc1ccc(Br)cc1)C(=O)NC(Cc1ccc2ccccc2c1)C(=O)NC(/C=N/N1CC(=O)NC1=O)Cc1ccccc1 (stereo not drawn) [Compound 7] |  | nanomolar | 
O=C1CN(/N=C/C(Cc2ccccc2)NC(=O)C(Cc2c[nH]c3ccccc23)NC(=O)C(Cc2c[nH]c3ccccc23)NC(=O)OCc2cnccn2)C(=O)N1 (stereo not drawn) [Compound 8] | 133 |  | 
O=C1CN(/N=C/C(Cc2ccccc2)NC(=O)C(Cc2ccc3ccccc3c2)NC(=O)C(Cc2ccc(F)cc2)NC(=O)OCc2ccccc2)C(=O)N1 (stereo not drawn) [Compound 9] |  | nanomolar | 
O=C1CN(/N=C\C(Cc2ccccc2)NC(=O)C2C=Cc3cc(Cl)ccc3O2)C(=O)N1 (stereo not drawn) [Compound 11] |  |  | IC50 (unit μm [sic]): 3540 nM
O=C(/C=C/c1ccccc1)NC(/C=N\N1CC(=O)NC1=O)Cc1ccccc1 (stereo not drawn) [Compound 12] |  |  | IC50 (unit μm [sic]): 2210 nM
COc1cc(C(=O)NC(/C=N/N2CC(=O)NC2=O)Cc2ccccc2)nc(OC)n1 (stereo not drawn) [Compound 14] |  |  | IC50 (unit μm [sic]): 2960 nM
